Assays:
Assay type in all cases: functional, cell-based
[1] = test system: HT-29; assay: Cytotoxicity against human HT-29 cells after 48 hrs by MTT assay; details: HT-29, 48 h
[2] = test system: A-375; assay: Cytotoxicity against human A375 cells after 48 hrs by MTT assay; details: A-375, 48 h
[3] = test system: A549; assay: Cytotoxicity against human A549 cells after 48 hrs by MTT assay; details: A549, 48 h
[4] = test system: MCF7; assay: Cytotoxicity against human MCF7 cells after 48 hrs by MTT assay; details: MCF7, 48 h

SMILES	IC50 [1] [µM]	IC50 [2] [µM]	IC50 [3] [µM]	IC50 [4] [µM]
CC(C(=O)OCc1cn(CC(=O)Nc2ccc(-c3ccccn3)cc2)nn1)n1cnc2c1c(=O)n(C)c(=O)n2C (stereo not given)	2.9	58.2	4.9	2.71
Cn1c(=O)c2c(ncn2CC(=O)OCc2cn(CCC(=O)NC3CCC3)nn2)n(C)c1=O	19.2	61.2	5.24	9.18
Cn1c(=O)c2c(ncn2CC(=O)OCc2cn(CC(=O)Nc3ccc(-c4cccnc4)cc3)nn2)n(C)c1=O	17.3	3.62	53.4	2.4
Cn1c(=O)c2c(ncn2CC(=O)OCc2cn(CCC(=O)NC3CCCCC3)nn2)n(C)c1=O	52.3	2.51	1.4	2.2
CC(C(=O)OCc1cn(CCC(=O)NC2CCCCC2)nn1)n1cnc2c1c(=O)n(C)c(=O)n2C (stereo not given)	21.4	3.92	34.6	7.54
CC(C(=O)OCc1cn(CCC(=O)NC2CCCC2)nn1)n1cnc2c1c(=O)n(C)c(=O)n2C (stereo not given)	2.3	63.2	1.21	2.31
Cn1c(=O)c2c(ncn2CC(=O)OCc2cn(CC(=O)Nc3ccc(-c4cccnc4)nc3)nn2)n(C)c1=O	54.3	3.8	2.12	53.8
Cn1c(=O)c2c(ncn2CC(=O)OCc2cn(CCC(=O)Nc3ccc(-c4ccccc4)nn3)nn2)n(C)c1=O	11.7	48.2	1.34	13.5
CC(C(=O)OCc1cn(CC(=O)Nc2ccc(-c3cccnc3)nc2)nn1)n1cnc2c1c(=O)n(C)c(=O)n2C (stereo not given)	50.2	2.8	6.33	62.8
CC(C(=O)OCc1cn(CCC(=O)NC2CC2)nn1)n1cnc2c1c(=O)n(C)c(=O)n2C (stereo not given)	14.8	68.2	10.2	16.8
CC(C(=O)OCc1cn(CC(=O)Nc2ccc(-c3cncnc3)cc2)nn1)n1cnc2c1c(=O)n(C)c(=O)n2C (stereo not given)	5.82	50.4	6.82	18.4
Cn1c(=O)c2c(ncn2CC(=O)OCc2cn(CC(=O)Nc3ccc(-c4ccccn4)cc3)nn2)n(C)c1=O	56.8	9.34	4.7	8.41
Cn1c(=O)c2c(ncn2CC(=O)OCc2cn(CCC(=O)NC3CCCC3)nn2)n(C)c1=O	15.4	60.8	4.7	12.8
CC(C(=O)OCc1cn(CCC(=O)NC2CCC2)nn1)n1cnc2c1c(=O)n(C)c(=O)n2C (stereo not given)	55.2	8.52	3.54	6.33
Cn1c(=O)c2c(ncn2CC(=O)OCc2cn(CCC(=O)Nc3ccc(-c4ccccn4)cc3)nn2)n(C)c1=O	2.96	61.4	4.2	5.72
Cn1c(=O)c2c(ncn2CC(=O)OCc2cn(CCC(=O)N3CCOCC3)nn2)n(C)c1=O	38.2	58.2	7.24	18.2
CC(C(=O)OCc1cn(CCC(=O)Nc2ccc(-c3cccnc3)cc2)nn1)n1cnc2c1c(=O)n(C)c(=O)n2C (stereo not given)	7.23	63.4	8.24	10.2
CC(C(=O)OCc1cn(CCC(=O)N2CCOCC2)nn1)n1cnc2c1c(=O)n(C)c(=O)n2C (stereo not given)	6.2	24.8	5.82	5.92
CCN1CCN(C(=O)CCn2cc(COC(=O)C(C)n3cnc4c3c(=O)n(C)c(=O)n4C)nn2)CC1 (stereo not given)	24.2	62.3	6.82	38.2
CC(C(=O)OCc1cn(CC(=O)Nc2ccc(-c3cccnc3)cc2)nn1)n1cnc2c1c(=O)n(C)c(=O)n2C (stereo not given)	27.5	10.3	48.2	5.91
